Data as given in patent publication US20220211796A1, “PEPTIDE ANTIBIOTICS AND METHODS OF USE THEREOF” (priority 2019, published 2022).
In brackets after ≈: the same amount, converted by molar mass. Numbered stars: 1 amine (or outer) side, 2 acyl side, 3 side chain; on linkers, the order of the positions; unused ones are H or OH. Bridge positions count the residues as written; N and C are the ends. Square brackets hold non-standard residues; d marks the D form. Peptide text beside a SMILES is read from it. TBMB = c1c(C[*:1])cc(C[*:3])cc1C[*:2]

Key:
Experiment in all cases: microbe, parasite or virus in culture
B. subtilis ATCC 6633 = test system: B. subtilis ATCC 6633
Procedure: (§1) The L-peptides identified from five different phage display libraries were catalogued as described previously and selected sequences were synthesized in D-enantiomeric form by SPPS for further investigation in several biological assays.
(§2) MICs were determined according to a 96-well microdilution protocol outlined by the Clinical and Laboratory Standard Institute (CLSI) guideline with modifications for peptide antibiotics reported by Wiegand et al.^35 Two-fold serial peptide dilutions were performed to go from 2560 μg/ml to 5 μg/ml in0.2% BSA and 0.01% acetic acid buffer in 96-well polypropylene plates (COSTAR, #3879). Dilution of bacterial suspensions (1:200) of different bacterial strains that were grown until 0.5 McFarland standard were prepared to obtain a final inoculum concentration of 8×10^5 CFU/ml in Mueller-Hinton broth.

E. coli ATCC 25992 = test system: E. coli ATCC 25992
Procedure: as §1, §2

E. faecalis ATCC 29121 = test system: E. faecalis ATCC 29121
Procedure: as §1, §2

[1] = test system: Methicillin-resistant S. aureus (MRSA) ATCC 43300
Procedure: as §1, §2

S. aureus ATCC 6538 = test system: S. aureus ATCC 6538
Procedure: as §1, §2

[2] = test system: high level vancomycin resistant E. faecium (vanA) ATCC 51559
Procedure: as §1, §2

[3] = test system: low level vancomycin resistant E. faecium (vanB) ATCC 51299
Procedure: as §1, §2

[4] = Table 5, low level vancomycin resistant E. faecium ATCC 51299

| MIC B. subtilis (B. subtilis ATCC 6633; ATCC 6633) | MIC E. coli (E. coli ATCC 25992; ATCC 25992) | MIC E. faecalis (E. faecalis ATCC 29121; ATCC 29121) | MIC MRSA ([1]; ATCC 43300) | MIC S. aureus (S. aureus ATCC 6538; ATCC 6538) | MIC VRE (vanA) ([2]; ATCC 51559) | MIC VRE (vanB) [3, 4] | SMILES | MIC B. subtilis (B. subtilis ATCC 6633; Table 6, B. subtilis ATCC6633) | MIC E. coli (E. coli ATCC 25992; Table 6, E. Coli ATCC25992) | MIC E. faecalis (E. faecalis ATCC 29121; Table 6, E. faecalis ATCC29121) | MIC MRSA ([1]; Table 6, MRSA ATCC43300) | MIC S. aureus (S. aureus ATCC 6538; Table 6, S. aureus ATCC6538) | MIC VRE (vanA) ([2]; Table 6, high level vancomycin resistant E. faecium ATCC51559) | MIC VRE (vanB) ([3]; Table 6, low level vancomycin resistant E. faecium ATCC51299) |
| --- | --- | --- | --- | --- | --- | --- | --- | --- | --- | --- | --- | --- | --- | --- |
| 64 µg/mL (≈ 68.2 µM) | >256 µg/mL | 128 µg/mL (≈ 136 µM) | 64 µg/mL (≈ 68.2 µM) | 64 µg/mL (≈ 68.2 µM) | >256 µg/mL | >256 µg/mL | CC(C)C[C@H]1NC(=O)[C@H](N)CSSC[C@H](C(N)=O)NC(=O)[C@@H]([C@H](C)O)NC(=O)[C@@H](C)NC(=O)CNC(=O)[C@@H]([C@H](C)O)NC(=O)[C@@H](CO)NC(=O)[C@@H](Cc2c[nH]c3ccccc23)NC1=O [P12, CLWSTGATC] (H-[dC][dL][dW][dS][dT]G[dA][dT][dC]-NH2; disulfide 1-9) | – | – | – | – | – | – | – |
| 32 µg/mL (≈ 22.1 µM) | >256 µg/mL | 32 µg/mL (≈ 22.1 µM) | 64 µg/mL (≈ 44.1 µM) | 32 µg/mL (≈ 22.1 µM) | >256 µg/mL | >256 µg/mL | CC(C)C[C@@H](NC(=O)[C@@H](CC(N)=O)NC(=O)[C@@H](CO)NC(=O)CNC(=O)[C@H](N)C(C)C)C(=O)N[C@H](CCCNC(=N)N)C(=O)N[C@H](CC(C)C)C(=O)N[C@H](CC(C)C)C(=O)N[C@H](Cc1c[nH]cn1)C(=O)N[C@H](CCC(N)=O)C(=O)N[C@H](Cc1c[nH]c2ccccc12)C(=O)N[C@H](CCCCN)C(N)=O [P3, VGSNLRLLHQWK] (H-[dV]G[dS][dN][dL][dR][dL][dL][dH][dQ][dW][dK]-NH2) | – | – | – | – | – | – | – |
| 128 µg/mL (≈ 155 µM) | >256 µg/mL | >256 µg/mL | >256 µg/mL | 128 µg/mL (≈ 155 µM) | >256 µg/mL | >256 µg/mL | CC(C)C[C@@H](NC(=O)[C@H](NC(=O)[C@@H](Cc1ccc(O)cc1)NC(=O)[C@@H](CS)NC(=O)[C@@H](CS)NC(=O)[C@H](N)CCCCN)[C@H](C)O)C(=O)N1CCC[C@@H]1C(N)=O [P5, KCCYTLP] (H-[dK][dC][dC][dY][dT][dL][dP]-NH2) | – | – | – | – | – | – | – |
| – | – | – | – | – | – | – | CSCC[C@H]1NC(=O)[C@@H](CC(=O)O)NC(=O)[C@H]2CSCc3cc(cc(c3)CSC[C@H](C(N)=O)NC(=O)[C@@H](Cc3c[nH]cn3)NC(=O)[C@@H](CC(C)C)NC1=O)CSC[C@@H](N)C(=O)N[C@H](CCC(N)=O)C(=O)N[C@H](Cc1ccc(O)cc1)C(=O)N[C@H](CC(N)=O)C(=O)N[C@H](CC(=O)O)C(=O)N2 [P16, COYNDCDMLHC] (H-[dC][dQ][dY][dN][dD][dC][dD][dM][dL][dH][dC]-NH2; linker 1-6-11 via TBMB) | 64 µg/mL (≈ 43.9 µM) | >256 µg/mL | 128 µg/mL (≈ 87.8 µM) | 128 µg/mL (≈ 87.8 µM) | 64 µg/mL (≈ 43.9 µM) | >256 µg/mL | >256 µg/mL |
| 32 µg/mL (≈ 33.8 µM) | >256 µg/mL | 32 µg/mL (≈ 33.8 µM) | 64 µg/mL (≈ 67.6 µM) | 32 µg/mL (≈ 33.8 µM) | >256 µg/mL | 64 µg/mL (≈ 67.6 µM) | CC[C@@H](C)[C@H]1NC(=O)[C@@H](CO)NC(=O)[C@H](N)CSSC[C@H](C(N)=O)NC(=O)[C@@H](Cc2c[nH]cn2)NC(=O)[C@@H]([C@H](C)O)NC(=O)[C@@H](CC(C)C)NC(=O)[C@@H](CO)NC(=O)[C@@H](CO)NC1=O [P11, CSISSLTHC] (H-[dC][dS][dI][dS][dS][dL][dT][dH][dC]-NH2; disulfide 1-9) | – | – | – | – | – | – | – |
| 64 µg/mL (≈ 64.5 µM) | >256 µg/mL | 128 µg/mL (≈ 129 µM) | 64 µg/mL (≈ 64.5 µM) | 64 µg/mL (≈ 64.5 µM) | >256 µg/mL | >256 µg/mL | CC[C@@H](C)[C@H]1NC(=O)[C@@H](CC(N)=O)NC(=O)[C@@H](CC(=O)O)NC(=O)[C@H](N)CSSC[C@H](C(N)=O)NC(=O)[C@@H](C(C)C)NC(=O)[C@H]2CCCN2C(=O)[C@@H]([C@H](C)O)NC(=O)[C@@H](CCSC)NC1=O [P13, CDNIMTPVC] (H-[dC][dD][dN][dI][dM][dT][dP][dV][dC]-NH2; disulfide 1-9) | – | – | – | – | – | – | – |

| SMILES | MIC B. subtilis (B. subtilis ATCC 6633; ATCC 6633) | MIC E. coli (E. coli ATCC 25992; ATCC 25992) | MIC E. faecalis (E. faecalis ATCC 29121; ATCC 29121) | MIC MRSA ([1]; ATCC 43300) | MIC S. aureus (S. aureus ATCC 6538; ATCC 6538) | MIC VRE (vanA) ([2]; ATCC 51559) | MIC VRE (vanB) [3, 4] | MIC B. subtilis (B. subtilis ATCC 6633; Table 6, B. subtilis ATCC6633) | MIC E. coli (E. coli ATCC 25992; Table 6, E. Coli ATCC25992) | MIC E. faecalis (E. faecalis ATCC 29121; Table 6, E. faecalis ATCC29121) | MIC MRSA ([1]; Table 6, MRSA ATCC43300) | MIC S. aureus (S. aureus ATCC 6538; Table 6, S. aureus ATCC6538) | MIC VRE (vanA) ([2]; Table 6, high level vancomycin resistant E. faecium ATCC51559) | MIC VRE (vanB) ([3]; Table 6, low level vancomycin resistant E. faecium ATCC51299) |
| --- | --- | --- | --- | --- | --- | --- | --- | --- | --- | --- | --- | --- | --- | --- |
| CC(C)[C@@H](N)C(=O)N[C@H](Cc1c[nH]cn1)C(=O)N[C@H](Cc1c[nH]c2ccccc12)C(=O)N[C@H](CC(=O)O)C(=O)N[C@H](Cc1ccccc1)C(=O)N[C@H](CCCNC(=N)N)C(=O)N[C@H](CCC(N)=O)C(=O)N[C@H](Cc1c[nH]c2ccccc12)C(=O)N[C@H](Cc1c[nH]c2ccccc12)C(=O)N[C@H](CCC(N)=O)C(=O)N1CCC[C@@H]1C(=O)N[C@H](CO)C(N)=O [P4, VHWDFRQWWQPS] (H-[dV][dH][dW][dD][dF][dR][dQ][dW][dW][dQ][dP][dS]-NH2) | 32 µg/mL (≈ 19.2 µM) | >256 µg/mL | 32 µg/mL (≈ 19.2 µM) | 64 µg/mL (≈ 38.3 µM) | 32 µg/mL (≈ 19.2 µM) | >256 µg/mL | 128 µg/mL (≈ 76.6 µM) | – | – | – | – | – | – | – |
